In US20260159520A1, “HETEROBIFUNCTIONAL COMPOUNDS AND METHODS OF TREATING DISEASE” (Halda Therapeutics OpCo, Inc., priority 2022, published 2026):

What was measured:
Assay type in all cases: cell-based
T47D cells = assay: Cellular growth inhibition assay for T47D cells; details: Homo sapiens, 72 hours, CellTiter-Glo 2.0
How it was run: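 Growth inhibition as GI50, fitted with four parameters to CellTiter-Glo luminescence after 72 h of compound exposure (0.5% DMSO). Cells were T47D, grown in insulin-supplemented (0.2 units/mL) DMEM with 10% FBS and treated one day post-seeding.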

[1] = test system: T-Rex 293 cell line SC3 cells lacking increased expression of androgen receptor protein; assay: Cellular growth inhibition, T-Rex 293 SC3 cells without doxycycline; details: not exposed to doxycycline, 72 hours, CellTiter-Glo 2.0
How it was run: (§1)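 Growth inhibition is measured in an inducible AR-expressing T-Rex 293 clone, SC3, cultured with or without 10 ng/mL doxycycline in hormone-depleted medium. Test compounds are applied for 72 hours. GI50 values derive from CellTiter-Glo 2.0 signal fitted by four-parameter regression.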

[2] = test system: T-Rex 293 cell line SC3 cells having increased expression of androgen receptor protein; assay: Cellular growth inhibition, T-Rex 293 SC3 cells with doxycycline (increased androgen receptor expression); details: with 10 ng/mL doxycycline (increased androgen receptor), 72 hours, CellTiter-Glo 2.0
How it was run: as §1

VCaP cells = assay: Cellular growth inhibition assay for VCaP cells; details: Homo sapiens, 72 hours, CellTiter-Glo 2.0

SMILES | GI50 (T47D cells) [nM] | GI50 (VCaP cells) [nM] | GI50 [1] [nM] | GI50 [2] [nM]
CCc1cnn2c(NCc3ccc(OCCOCCOCCOCCOCCOC4CCN(c5ncc(C(=O)N[C@H]6C(C)(C)[C@H](Oc7ccc(C#N)c(Cl)c7)C6(C)C)cn5)CC4)nc3)cc(N3CCCC[C@H]3CCO)nc12 [Compound I-9] | – | < 100 | 100 to 1000 | < 100
CCc1cnn2c(NCc3ccc(OCCN(C)c4ncc(C(=O)N[C@H]5C(C)(C)[C@H](Oc6ccc(C#N)c(Cl)c6)C5(C)C)cn4)nc3)cc(N3CCCC[C@H]3CCO)nc12 [Compound I-1] | 500 to 1500 | – | 100 to 1000 | 100 to 1000
CCc1cnn2c(NCc3ccc(OCCCCN4CCN(CC5CCN(c6ncc(C(=O)N[C@H]7C(C)(C)[C@H](Oc8ccc(C#N)c(Cl)c8)C7(C)C)cn6)CC5)CC4)nc3)cc(N3CCCC[C@H]3CCO)nc12 [Compound I-43] | < 500 | < 100 | 100 to 1000 | < 100
CCc1cnn2c(NCc3ccc(OCCCN4CCN(CC5CCN(c6ccc(C(=O)N[C@H]7C(C)(C)[C@H](Oc8ccc(C#N)c(Cl)c8)C7(C)C)cn6)CC5)CC4)nc3)cc(N3CCCC[C@@H]3CCO)nc12 [Compound I-55, N-((1r,3r)-3-(3-chloro-4-cyanophenoxy)-2,2,4,4-tetramethylcyclobutyl)-6-(4-((4-(3-((5-(((3-ethyl-5-((R)-2-(2-hydroxyethyl)piperidin-1-yl)pyrazolo[1,5-a]pyrimidin-7-yl)amino)methyl)pyridin-2-yl)oxy)propyl)piperazin-1-yl)methyl)piperidin-1-yl)nicotinamide] | < 500 | < 100 | 100 to 1000 | < 100
CCc1cnn2c(NCc3ccc(OC4CCN(CC5CCN(c6ncc(C(=O)N[C@H]7C(C)(C)[C@H](Oc8ccc(C#N)c(Cl)c8)C7(C)C)cn6)CC5)CC4)nc3)cc(N3CCCC[C@H]3CCO)nc12 [Compound I-46] | < 500 | 100 to 1000 | 100 to 1000 | < 100
CCc1cnn2c(NCc3ccc(OCCOCCOCCOC4CCN(c5ncc(C(=O)N[C@H]6C(C)(C)[C@H](Oc7ccc(C#N)c(Cl)c7)C6(C)C)cn5)CC4)nc3)cc(N3CCCC[C@H]3CCO)nc12 [Compound I-8] | < 500 | < 100 | 100 to 1000 | < 100
CCc1cnn2c(NCc3ccc(OCCOCCOCCOCCOCCOCCOCCN(C)c4ncc(C(=O)N[C@H]5C(C)(C)[C@H](Oc6ccc(C#N)c(Cl)c6)C5(C)C)cn4)nc3)cc(N3CCCC[C@H]3CCO)nc12 [Compound I-5] | – | – | 1000 to 3500 | 100 to 1000
CCc1cnn2c(NCc3ccc(COCCN4CCN(CC5CCN(c6ncc(C(=O)N[C@H]7C(C)(C)[C@H](Oc8ccc(C#N)c(Cl)c8)C7(C)C)cn6)CC5)CC4)nc3)cc(N3CCCC[C@H]3CCO)nc12 [Compound I-42] | < 500 | < 100 | 100 to 1000 | < 100
CCc1cnn2c(NCc3ccc(OCCOC4CCN(c5ncc(C(=O)N[C@H]6C(C)(C)[C@H](Oc7ccc(C#N)c(Cl)c7)C6(C)C)cn5)CC4)nc3)cc(N3CCCC[C@H]3CCO)nc12 [Compound I-7, N-((1r,3r)-3-(3-chloro-4-cyanophenoxy)-2,2,4,4-tetramethylcyclobutyl)-2-(4-(2-((5-(((3-ethyl-5-((S)-2-(2-hydroxyethyl)piperidin-1-yl)pyrazolo[1,5-a]pyrimidin-7-yl)amino)methyl)pyridin-2-yl)oxy)ethoxy)piperidin-1-yl)pyrimidine-5-carboxamide] | > 3000 | 1000 to 3500 | > 3500 | > 3500
CCc1cnn2c(NCc3ccc(OCCOCC4CCN(CC5CCN(c6ncc(C(=O)N[C@H]7C(C)(C)[C@H](Oc8ccc(C#N)c(Cl)c8)C7(C)C)cn6)CC5)CC4)nc3)cc(N3CCCC[C@H]3CCO)nc12 [Compound I-45] | – | < 100 | 100 to 1000 | < 100
CCc1cnn2c(NCc3ccc(OCCOCCOCCOCCOCCN(C)c4ncc(C(=O)N[C@H]5C(C)(C)[C@H](Oc6ccc(C#N)c(Cl)c6)C5(C)C)cn4)nc3)cc(N3CCCC[C@H]3CCO)nc12 [Compound I-3] | – | < 100 | 100 to 1000 | < 100
CC1(C)[C@H](NC(=O)c2cnc(N3CCC(OCCNS(=O)(=O)c4ccc(Nc5ncc(Br)c(Nc6cccc(F)c6C(N)=O)n5)cc4)CC3)nc2)C(C)(C)[C@H]1Oc1ccc(C#N)c(Cl)c1 [Compound I-13, 2-(4-(2-((4-((5-bromo-4-((2-carbamoyl-3-fluorophenyl)amino)pyrimidin-2-yl)amino)phenyl)sulfonamido)ethoxy)piperidin-1-yl)-N-((1 r,3r)-3-(3-chloro-4-cyanophenoxy)-2,2,4,4-tetramethylcyclobutyl)pyrimidine-5-carboxamide] | < 500 | – | > 3500 | > 3500
CCc1cnn2c(NCc3ccc(OCCCCOCCOC4CCN(c5ncc(C(=O)N[C@H]6C(C)(C)[C@H](Oc7ccc(C#N)c(Cl)c7)C6(C)C)cn5)CC4)nc3)cc(N3CCCC[C@H]3CCO)nc12 [Compound I-34] | – | < 100 | > 3500 | < 100
CCc1cnn2c(NCc3ccc(=O)n(CCOCCOCCOCCOCCOCCOCCN(C)c4ncc(C(=O)N[C@H]5C(C)(C)[C@H](Oc6ccc(C#N)c(Cl)c6)C5(C)C)cn4)c3)cc(N3CCCC[C@H]3CCO)nc12 [Compound I-4, N-((1r,3r)-3-(3-chloro-4-cyanophenoxy)-2,2,4,4-tetramethylcyclobutyl)-2-((20-(5-(((3-ethyl-5-((S)-2-(2-hydroxyethyl)piperidin-1-yl)pyrazolo[1,5-a]pyrimidin-7-yl)amino)methyl)-2-oxopyridin-1(2H)-yl)-3,6,9,12,15,18-hexaoxaicosyl)(methyl)amino)pyrimidine-5-carboxamide] | – | – | 100 to 1000 | 100 to 1000
CCc1cnn2c(NCc3ccc(OCCOCCOCCOC4CCN(c5ccc(C(=O)N[C@H]6C(C)(C)[C@H](Oc7ccc(C#N)c(Cl)c7)C6(C)C)nn5)CC4)nc3)cc(N3CCCC[C@H]3CCO)nc12 [Compound I-44, N-((1r,3r)-3-(3-chloro-4-cyanophenoxy)-2,2,4,4-tetramethylcyclobutyl)-6-(4-(2-(2-(2-((5-(((3-ethyl-5-((S)-2-(2-hydroxyethyl)piperidin-1-yl)pyrazolo[1,5-a]pyrimidin-7-yl)amino)methyl)pyridin-2-yl)oxy)ethoxy)ethoxy)ethoxy)piperidin-1-yl)pyridazine-3-carboxamide] | < 500 | – | 100 to 1000 | 100 to 1000

More lines, main results first:

GI50 (T47D cells) [nM] | GI50 (VCaP cells) [nM] | SMILES | GI50 [1] [nM] | GI50 [2] [nM]
< 500 | < 100 | CCc1cnn2c(NCc3ccc(OCCCN4CCC(C5CN(c6ncc(C(=O)N[C@H]7C(C)(C)[C@H](Oc8ccc(C#N)c(Cl)c8)C7(C)C)cn6)C5)CC4)nc3)cc(N3CCCC[C@H]3CCO)nc12 [Compound I-61] | 100 to 1000 | < 100
> 3000 | > 3500 | CC1(C)[C@H](NC(=O)c2cnc(N3CCC(CN4CCN(CCN5C/C=C/CCOc6cccc(c6)-c6ccnc(n6)Nc6cccc(c6)C5)CC4)CC3)nc2)C(C)(C)[C@H]1Oc1ccc(C#N)c(Cl)c1 [Compound I-94] | 1000 to 3500 | 100 to 1000
< 500 | < 100 | CC(C)n1cc(-c2ccnc3[nH]c(C4CCN(CCN5CCN(CC6CCN(c7ncc(C(=O)NC8C(C)(C)C(Oc9ccc(C#N)c(Cl)c9)C8(C)C)cn7)CC6)CC5)CC4)cc23)ccc1=O (stereo not drawn) [Compound I-74, N-[3-(3-chloro-4-cyano-phenoxy)-2,2,4,4-tetramethyl-cyclobutyl]-2-[4-[[4-[2-[4-[4-(1-isopropyl-6-oxo-3-pyridyl)-1H-pyrrolo [2,3-b]pyridin-2-yl]-1-piperidyl]ethyl]piperazin-1-yl]methyl]-1-piperidyl]pyrimidine-5-carboxamide] | 100 to 1000 | < 100
1500 to 3000 | 1000 to 3500 | CCc1cnn2c(NCc3ccc(N4CCC(CN5CCC6CN(c7ncc(C(=O)N[C@H]8C(C)(C)[C@H](Oc9ccc(C#N)c(Cl)c9)C8(C)C)cn7)CCC6C5)CC4)nc3)cc(N3CCCC[C@H]3CCO)nc12 (stereo partly drawn) [Compound I-71] | > 3500 | < 100
< 500 | < 100 | CCc1cnn2c(NCc3ccc(OCCCN4CCN(CC5CCN(c6ccc(C(=O)N[C@H]7C(C)(C)[C@H](Oc8ccc(C#N)c(Cl)c8)C7(C)C)cc6)CC5)CC4)nc3)cc(N3CCCC[C@@H]3CCO)nc12 [II-1, N-((1r,3r)-3-(3-chloro-4-cyanophenoxy)-2,2,4,4-tetramethylcyclobutyl)-4-(4-((4-(3-((5-(((3-ethyl-5-((R)-2-(2-hydroxyethyl)piperidin-1-yl)pyrazolo[1,5-a]pyrimidin-7-yl)amino)methyl)pyridin-2-yl)oxy)propyl)piperazin-1-yl)methyl)piperidin-1-yl)benzamide] | 100 to 1000 | < 100
1500 to 3000 | 1000 to 3500 | Cc1ncc(-c2nc(Nc3ccc(C(=O)N4CC[C@H](N(C)CCOCCOCCOC5CCN(c6ncc(C(=O)N[C@H]7C(C)(C)[C@H](Oc8ccc(C#N)c(Cl)c8)C7(C)C)cn6)CC5)C4)cc3)ncc2F)n1C(C)C [Compound I-96] | 1000 to 3500 | 100 to 1000
< 500 | < 100 | CCc1cnn2c(NCc3ccc(OCCCN4CCN(C5CN(c6ncc(C(=O)N[C@H]7C(C)(C)[C@H](Oc8ccc(C#N)c(Cl)c8)C7(C)C)cn6)C5)CC4)nc3)cc(N3CCCC[C@H]3CCO)nc12 [Compound I-60] | < 100 | < 100
< 500 | < 100 | CCc1cnn2c(NCc3ccc(N4CCC(N5CCN(C6CN(c7ncc(C(=O)N[C@H]8C(C)(C)[C@H](Oc9ccc(C#N)c(Cl)c9)C8(C)C)cn7)C6)CC5)CC4)nc3)cc(N3CCCC[C@H]3CCO)nc12 [Compound I-86] | < 100 | < 100
